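All cell lines were grown in 96-well plates and treated with compound for 48 hours. TGI denotes the concentration required for complete inhibition of growth.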
Columns and labels:
Assay in all cases: growth of human tumour cells (NCI), 48 h
[1] = test system: KM12 colon
[2] = test system: K-562 leukemia
[3] = test system: COLO 205 colon
[4] = test system: UO-31 renal
[5] = test system: HCT-15 colon
[6] = test system: MOLT-4 leukemia
[7] = test system: OVCAR-4 ovarian
[8] = test system: SF-295 CNS
[9] = test system: MALME-3M melanoma
[10] = test system: IGROV1 ovarian

SMILES	TGI [1] [µM]	TGI [2] [µM]	TGI [3] [µM]	TGI [4] [µM]	TGI [5] [µM]	TGI [6] [µM]	TGI [7] [µM]	TGI [8] [µM]	TGI [9] [µM]	TGI [10] [µM]
CC(C)OC(=O)[C@@H](O)[C@H](CO)C1=CC([Si](C)(C)c2ccccc2)=CON1	> 100	> 100	> 100	> 100	> 100	> 100	> 100	> 100	–	–
COc1ccc(/C=N/NC(=O)c2cnc3[nH]c(=O)n(C)c(=O)c3c2)cc1	> 100	> 100	> 100	> 100	> 100	> 100	> 100	> 100	> 100	> 100
NC1CC(=O)c2sccc21 (stereo not given)	> 100	> 100	> 100	> 100	> 100	> 100	> 100	> 100	–	> 100
Cc1nnc(-n2c(O)cc(=O)n(-c3ccccc3)c2=S)nc1/C=C/c1ccc(N(C)C)cc1	21	49.9	21.2	19.9	13.5	> 100	> 58.1	> 62.2	8.38	34.2
Cc1ccc(S(=O)(=O)NC(=O)NC(Cc2ccc(O)c(O)c2)C(=O)O)cc1 (stereo not given)	> 100	> 100	> 100	> 100	> 100	> 100	> 100	> 100	> 100	> 100
CC[C@@]12C=CC(=S)N(CCSc3ccccc3)[C@@H]1c1c(n(S(=O)(=O)c3ccc(OC)cc3)c3ccccc13)CC2	> 100	> 100	> 100	> 100	> 100	> 100	–	> 100	> 100	–
C=CCCCCCCCCCOC1C=CC(OC(C)=O)C(COC(C)=O)O1 (stereo not given)	> 100	17.4	> 100	> 100	> 100	86	> 100	> 100	> 100	> 100
CC1CCc2sc3[nH]c(=S)n(-c4ccccc4)c(=O)c3c2C1 (stereo not given)	> 100	> 100	> 100	> 100	> 100	> 100	> 100	> 100	> 100	> 100
COc1cc2c(cc1OCCCC(=O)Nc1cc(C(=O)NCCCN(C)C)n(C)n1)N=CC1CCCN1C2=O (stereo not given)	> 100	3.8	> 23	24.3	> 21.5	3.65	14.1	> 100	14.2	> 23.5
c1ccc2nc(CCC3CCCCN3)ccc2c1 (stereo not given)	> 100	> 100	31.5	> 100	> 100	–	> 100	> 100	> 100	> 100
CCCCCCC(C)OC(=O)/C=C(\CC(=O)OC(C)CCCCCC)C(=O)OC(C)CCCCCC (stereo not given)	–	–	> 100	> 100	> 100	> 100	> 100	> 100	> 100	> 100
c1ccc(C2=NCCc3cc4c(cc32)OCO4)cc1	> 100	–	> 100	–	–	–	> 100	> 100	> 100	> 100
COc1ccccc1NC(=O)O/N=C(/Cl)C(C)C	39.3	10.9	5.09	32.8	27	4.5	–	29.1	7.37	32.7
O=C1C(NCCN2CCOCC2)=C(Cl)C(=O)c2ncccc21	2.61	–	–	2.33	1.52	5.69	–	2.77	1.9	2.3
Cc1cc2nc(N3C(=O)/C(=C/c4ccc(Cl)cc4)N=C3c3ccccc3)sc2cc1C	92.3	> 100	43.3	> 100	> 100	> 100	91.8	> 100	–	> 100
CCN(CC)C(=O)N1CN(c2ccccc2)C2(CCN(CCCSc3ccc(F)cc3)CC2)C1=O	25.3	27.4	–	22.6	26.4	12.5	> 100	25.1	29.6	–
O=C1ON=C2C3CC4CC12CC1(C3)C(=O)ON=C41	> 100	> 100	> 100	> 100	–	> 100	> 100	> 100	> 100	> 100

From PubChem BioAssay (NCI)
